# Source: US11491132B2, “Methods for treating thrombocytopenia” (Enzychem Lifesciences Corporation, priority 2014, dated 2022)
# Tests used:
# [1] = system: HepG2 cells; assay: WST-1 cell viability assay in HepG2 cells; format: cell-based; conditions: PLAG 1 to 100 μg/ml
# Description: The incubated HepG2 cell lines are treated with PLAG (1˜100 μg/ml), followed by IL-4 and TNF-α, reacted for 1 hour, incubated for 18 hours at 37° C. and the supernatant isolated. Quantitation of the amount of C3 in the cellular culture medium (supernatant) from HepG2 cells is performed by ELISA using a commercially available monoclonal antibody (mAb, R&D Systems) and the manufacture's protocol; the results are presented in FIG. 3. C3 is expressed spontaneously under in vitro culture condition using 10% FCS added to HepG2 cells incubated for 12 hr. The cells are treated with different doses of PLAG from 1 to 100 μg/ml (Panel A, Panel B) or 10 and 100 μg/ml of S6I (Panel C), reacted with IL-4 and TNF-α for 1 hr and then incubated for 18 hr at 37° C. Cellular viability is confirmed using the WST-1 assay (Panel A).
# [2] = system: neutrophils, platelets, Complement 3; assay: Chemotherapy-induced neutropenia and thrombocytopenia (CIN) animal model; format: in vivo, mice
# Description: The effect of PLAG for treatment of neutropenia and thrombocytopenia induced by chemotherapy (CIN) is evaluated in an animal model. Anti-cancer agents (Gemcitabine 50 mg/kg, Cyclosphosphamide […], or Tamoxifen 50 mg/kg) are dosed daily for 3 weeks; PLAG is also administered 50 mg/kg daily for 3 weeks. After three weeks, neutrophils are harvested and counted with Auto Hematology Analyzer BC-5300.
# It is believed that the neutropenia and thrombocytopenia of these agents and other chemotherapeutic agents may be due at least in part to a specific complement-mediated toxicity. This is seen in FIG. 6.
# [3] = system: platelets; assay: Phenylhydrazine-induced platelet reduction in mice; format: in vivo; conditions: PHZ 100 mg/kg i.p., PLAG 5 mg/kg orally
# Description: To evaluate the effect of PLAG on the concentration of platelets mice are treated with compounds which would be expected to cause reductions in platelet numbers, specifically phenylhydrazine, tamoxifen or lipopolysaccharide.
# Mice are injected with 100 mg/kg phenylhydrazine (PHZ), i.p., to induce anemia and reduction of platelets. 5 mg/kg PLAG is administered to the mice orally and blood samples are taken at 3 and 13 days after. In addition, for comparison, normal mice which are not treated with phenylhydrazine are prepared as a normal group, and mice treated with PHZ and olive oil instead of PLAG are prepared as a control group. The blood samples taken from the mice are treated with 0.5 ml EDTA (Minicollect tube, Greiner bio-one, Austria) and concentration of platelet is measured using automated blood sample analyzer BC-6800 (Mindray, Shenzhen, China) by number of platelet per […] (k: 1,000).
# [4] = target: T1, STAT6 (Homo sapiens, UniProt P42226); assay: Reporter (luciferase) assay for STAT6 transcriptional activity in HepG2 cells; format: cell-based; parameters: endogenous in cells; host or cells: HepG2 (gene transfected); conditions: gene transfected HepG2, 10 ng IL-4, PLAG 0.01-10 μg/ml, 12 hours incubation
# T1 sequence (P42226 1-847): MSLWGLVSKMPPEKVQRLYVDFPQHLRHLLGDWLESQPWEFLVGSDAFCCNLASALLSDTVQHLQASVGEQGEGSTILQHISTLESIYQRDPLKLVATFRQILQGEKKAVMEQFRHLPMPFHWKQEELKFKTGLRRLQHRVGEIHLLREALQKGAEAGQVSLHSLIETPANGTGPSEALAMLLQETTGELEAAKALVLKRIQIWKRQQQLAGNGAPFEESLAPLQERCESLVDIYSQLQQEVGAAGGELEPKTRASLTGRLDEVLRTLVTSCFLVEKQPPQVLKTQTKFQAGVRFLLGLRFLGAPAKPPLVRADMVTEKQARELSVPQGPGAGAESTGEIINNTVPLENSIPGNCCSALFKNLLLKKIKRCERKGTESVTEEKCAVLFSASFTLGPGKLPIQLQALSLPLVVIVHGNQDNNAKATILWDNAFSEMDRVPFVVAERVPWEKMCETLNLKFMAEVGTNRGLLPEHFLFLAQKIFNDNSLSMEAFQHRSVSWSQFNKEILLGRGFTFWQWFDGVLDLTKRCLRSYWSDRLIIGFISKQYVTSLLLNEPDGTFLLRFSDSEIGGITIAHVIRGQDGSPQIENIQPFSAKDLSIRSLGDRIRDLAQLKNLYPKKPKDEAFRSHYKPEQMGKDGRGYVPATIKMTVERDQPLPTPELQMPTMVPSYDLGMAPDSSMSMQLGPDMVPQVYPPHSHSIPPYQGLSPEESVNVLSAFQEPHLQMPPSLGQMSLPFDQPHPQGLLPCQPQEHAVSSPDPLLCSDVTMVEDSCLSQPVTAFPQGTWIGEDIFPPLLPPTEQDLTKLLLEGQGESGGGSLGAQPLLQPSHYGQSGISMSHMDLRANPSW
# Description: By using STAT6 inhibitor (S6I), it is confirmed that the reduction of Complement 3 in HepG2 cells (human hepatocyte cell line) is regulated by STAT6. […] It is also confirmed that PLAG has selective efficacy on STAT6 over STAT1. FIG. 1 presents graphs showing STAT1 and STAT6 transcriptional activity in the PLAG treated HepG2 cells. NC refers to the unstimulated control cell. For the STAT1 assay, gene transfected HepG2 (human hepatocyte cell line) is treated with 10 ng of IFN-γ and serially diluted PLAG is added (0.01 μg/ml, 0.1 μg/ml, 1 μg/ml, and 10 μg/ml as shown) to see its effect on gene expression in the stimulated cell. For the STAT6 assay, gene transfected HepG2 cells are treated with 10 ng of IL-4 and again serially diluted PLAG is added (0.01 μg/ml, 0.1 μg/ml, 1 μg/ml, and 10 μg/ml as shown) to see its effect on gene expression in the stimulated cell. The assay is carried out following 12 hours incubation of treated cells.
structure (smiles),measurement,setting,value
"CCCCC/C=C\C/C=C\CCCCCCCC(=O)OC(COC(C)=O)COC(=O)CCCCCCCCCCCCCCC (racemic) [PLAG, 1-palmitoyl-2-linoleoyl-3-acetylglycerol]",cellular viability (WST-1),[1],does not affect the cellular propagation and death
same,neutrophil score,[2]; Gemcitabine 50 mg/kg with PLAG 50 mg/kg,improved significantly
same,survival rate,[2]; Gemcitabine with continued PLAG vs Gemcitabine alone,improved survival rate
same,reduced neutrophil count following chemotherapy,"[2]; Gemcitabine, Cyclophosphamide or Tamoxifen daily 3 weeks, PLAG 50 mg/kg daily 3 weeks",prevented
same,"Complement 3 activation by chemotherapeutic agents, blockage","[2]; Gemcitabine, Cyclophosphamide or Tamoxifen with PLAG",largely blocked
same,activities and survival rate,[2]; Tamoxifen 50 mg/kg co-treated with PLAG 50 mg/kg vs Tamoxifen only,faster improvement of activities and survival rate
same,neutrophil count,[2]; cyclophosphamide with PLAG 50 mg/kg vs control group,improved significantly
same,Platelet (day 3) Conc,[3],1072 ± 125.4 k/ul
same,"STAT6 expression (transcriptional activity, reporter)",[4],"significant, dose-dependent effect"
